# How the values were obtained:
# [1] = Frog in situ single pass intestinal perfusion (SPIP), parallel-tube model; settings: Rana tigrina (frog), pH 7.4
# [2] = system: human intestinal permeability; design: method as in a (footnote not given); settings: reported human Peff; ref a (footnote not given); cited from earlier work
# [3] = system: frog intestine; settings: in vivo
# [4] = system: Caco-2; design: method as in b (footnote not given); settings: Caco-2 cell data; ref b (footnote not given); cited from earlier work
# [5] = system: rat everted gut sac; settings: rat everted gut sac model; ref c (footnote not given); cited from earlier work
# [6] = system: frog intestine; test: Frog in situ single pass intestinal perfusion (SPIP), parallel-tube model; settings: non-absorbable marker in outlet perfusate, frog SPIP
compound,measurement,setting,value
CCCCc1nc(Cl)c(CO)n1Cc1ccc(-c2ccccc2-c2nn[nH]n2)cc1 [Losartan],Papp at 90 min,[1]; other: in situ single pass intestinal perfusion,42.7 ± 27 ×10⁻⁶ cm/s
same,"Effective permeability coefficient, Human",[2],1.15^a 10^-4cm s^-1
same,Change in Peff of the probe drug when co-perfused with inhibitors,[3],significant change in Peff was observed
same,"Effective permeability coefficient, Caco-2",[4],0.022^b 10^-4cm s^-1
Cc1ncc2n1-c1ccc(Cl)cc1C(c1ccccc1F)=NC2 [Midazolam],Papp at 90 min,[1],203 ± 7 ×10⁻⁶ cm/s
same,"Effective permeability coefficient, Rat",[5],2.08 ± 0.50^c 10^-4cm s^-1
O=S1(=O)OC(c2ccc(O)cc2)(c2ccc(O)cc2)c2ccccc21 [phenol red],Recovery of phenol red,[6],98.3 ± 1.0%

# Source: paper PMC4500896, “Frog intestinal perfusion to evaluate drug permeability: application to p-gp and cyp3a4 substrates” (Frontiers in Pharmacology, 2015)
